Our source for the GI50 values is patent US12558428B2, “Heterobifunctional compounds and their use in treating disease” (Halda Therapeutics OpCo, Inc., priority 2024, dated 2026).

What all share (type): cell-based
In test [1] the test system is T-Rex 293 cells having increased expression of estrogen receptor alpha protein. The test is described as follows: Cellular growth inhibition assay, T-Rex 293 cells, (+) doxycycline. As to conditions: T-REx-293, 72 h, Table 7-A; T-Rex 293 cells with doxycycline (increased ERα expression); 72 hours; CellTiter-Glo; read-out: (+) Dox GI50. The essentials:
(§1)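 Viability read-out was CellTiter-Glo 2.0 luminescence after 72 h compound exposure, normalized to zero luminescence and fitted by four-parameter regression to give GI50. Cells were an ERα-inducible T-Rex 293 clone cultured with or without 3 ng/mL doxycycline in charcoal-stripped, phenol red-free medium.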
On the technique in general: In ATP-based viability assays light output follows the ATP content of the culture.

Test [2] concerns T-Rex 293 cells lacking increased expression of estrogen receptor alpha protein. Put plainly: Cellular growth inhibition assay, T-Rex 293 cells, (−) doxycycline. As to conditions: T-REx-293, 72 h, Table 7-A; T-Rex 293 cells without doxycycline (lacking increased ERα expression); 72 hours; CellTiter-Glo; read-out: (−) Dox GI50. In a few lines:
as §1

For test [3], the system named is MCF7 cells (ATCC #HTB-22). The test is described as follows: Cellular growth inhibition assay, MCF7 cells purchased from ATCC. The note with it: Homo sapiens, MCF7, 144 h, Table 8-A; MCF7 cells purchased from ATCC; six days; CellTiter-Glo; read-out: GI50. In a few lines: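 MCF7 cells in RPMI 1640 with 10% FBS and 0.2 U/ml insulin, seeded at 1,500 cells/well (ATCC) or 225 cells/well (ECACC). Compounds added 24 h later, then 6 days at 37° C. Viability by CellTiter-Glo 2.0 luminescence. GI50 from four-parameter fit.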

For orientation: GI50 means the concentration at which growth is held to half of that of the control. For `Cc1sc2c(c1C)C(c1ccc(N3CCC4(CCN(CC5CCN(c6ccc([C@@H]7c8ccc(O)cc8CC[C@@H]7c7ccccc7)cc6)CC5)CC4)C3)cc1)=N[C@@H](C)c1nnc(C)n1-2` [III-190], the GI50 was less than 50 nM in test [1], 500 to 2500 nM in test [2] and 50 to 500 nM in test [3].

Take `Cc1sc2c(c1C)C(c1ccc(N3CCC4(CCN(CC5CCC(c6ccc([C@@H]7c8ccc(O)cc8CC[C@@H]7c7ccccc7)cc6)CC5)C4)CC3)cc1)=N[C@@H](C)c1nnc(C)n1-2` (stereo partly drawn) [III-191]: the GI50 in test [1] was less than 50 nM; in test [2], 50 to 500 nM; in test [3] it was 50 to 500 nM.

Turning to `Cc1sc2c(c1C)C(c1ccc(N3CCC(O)(CN4CCN(c5ccc([C@H]6c7ccc(O)cc7CC[C@H]6c6ccc(F)cc6F)cc5)CC4)CC3)cc1)=N[C@H](Cc1ncco1)c1nnc(C)n1-2` [III-192], the GI50 in test [1], in test [2] and in test [3] was more than 2500 nM in each case.

Turning to `Cc1sc2c(c1C)C(c1ccc(N3CCC(O)(CN4CCN(c5ccc([C@@H]6c7ccc(O)cc7CC[C@@H]6c6ccc(F)cc6F)cc5)CC4)CC3)cc1)=N[C@H](Cc1ncco1)c1nnc(C)n1-2` [III-193], the GI50 is 50 to 500 nM in test [1], 500 to 2500 nM in test [2] and 50 to 500 nM in test [3].

For the compound `Cc1sc2c(c1C)C(c1ccc(N3CCC(O)(CN4CCN(c5cc(F)c([C@H]6c7ccc(O)cc7CC[C@H]6c6ccccc6)c(F)c5)CC4)CC3)cc1)=N[C@@H](Cc1ncco1)c1nnc(C)n1-2` [III-194], the GI50 in test [1], in test [2] and in test [3] was more than 2500 nM in each case.

Regarding `Cc1sc2c(c1C)C(c1ccc(N3CCC(O)(CN4CCN(c5cc(F)c([C@H]6c7ccc(O)cc7CC[C@H]6c6ccccc6)c(F)c5)CC4)CC3)cc1)=N[C@H](Cc1ncco1)c1nnc(C)n1-2` [III-195], the results for the GI50 in test [1], in test [2] and in test [3] were more than 2500 nM, more than 2500 nM and 500 to 2500 nM, respectively.

On to `Cc1sc2c(c1C)C(c1ccc(N3CCC(O)(CN4CCN(c5cc(F)c([C@@H]6c7ccc(O)cc7CC[C@@H]6c6ccccc6)c(F)c5)CC4)CC3)cc1)=N[C@@H](Cc1ncco1)c1nnc(C)n1-2` [III-196], for which the GI50 is less than 50 nM in test [1], 50 to 500 nM in test [2] and less than 50 nM in test [3].

On to `Cc1sc2c(c1C)C(c1ccc(N3CCC(O)(CN4CCN(c5cc(F)c([C@@H]6c7ccc(O)cc7CC[C@@H]6c6ccccc6)c(F)c5)CC4)CC3)cc1)=N[C@H](Cc1ncco1)c1nnc(C)n1-2` [III-197], for which the GI50 is less than 50 nM in test [1], 50 to 500 nM in test [2] and 50 to 500 nM in test [3].

Take `Cc1sc2c(c1C)C(c1ccc(N3CCC(O)(CN4CCN(c5ccc([C@H]6c7ccc(C(=O)O)cc7CC[C@H]6c6ccccc6)cc5)CC4)CC3)cc1)=N[C@H](Cc1ncco1)c1nnc(C)n1-2` [III-198]: the GI50 in test [1], in test [2] and in test [3] was more than 2500 nM throughout.

Consider `Cc1sc2c(c1C)C(c1ccc(N3CCC(O)(CN4CCN(c5ccc([C@H]6c7ccc(C(=O)O)cc7CC[C@H]6c6ccccc6)cc5)CC4)CC3)cc1)=N[C@@H](Cc1ncco1)c1nnc(C)n1-2` [III-199], for which the 50% growth inhibitory concentration (GI50) in test [1], in test [2] and in test [3] was more than 2500 nM each time.

For the compound `Cc1sc2c(c1C)C(c1ccc(N3CCC(O)(CN4CCN(c5ccc([C@@H]6c7ccc(C(=O)O)cc7CC[C@@H]6c6ccccc6)cc5)CC4)CC3)cc1)=N[C@@H](Cc1ncco1)c1nnc(C)n1-2` [III-200], the GI50 was less than 50 nM in test [1], 50 to 500 nM in test [2] and less than 50 nM in test [3].

`Cc1sc2c(c1C)C(c1ccc(N3CCC(O)(CN4CCN(c5ccc([C@@H]6c7ccc(C(=O)O)cc7CC[C@@H]6c6ccccc6)cc5)CC4)CC3)cc1)=N[C@H](Cc1ncco1)c1nnc(C)n1-2` [III-201]: the GI50 in test [1], in test [2] and in test [3] was 50 to 500 nM throughout.
